How the values were obtained:
[1] = target: T1, cow milk-derived xanthine oxidase (XOD) (Bos taurus, UniProt P80457); test: Xanthine oxidase inhibition activity (inhibition of uric acid formation); type: biochemical; details: for IC50: xanthine 100 μM, XOD 10 mU/mL, 50 mM phosphate buffer pH 7.4, room temperature 15 minutes, O.D. 292 nm; for xanthine oxidase inhibition activity compared with allopurinol: in words, versus allopurinol
T1 construct: cow milk-derived xanthine oxidase (XOD) (10 mU/mL); from tissue; host or cells: cow milk
Procedure: In a 50 mM phosphate buffer (pH 7.4), xanthine (100 μM), cow milk-derived xanthine oxidase (XOD) (10 mU/mL), and a test compound were mixed and the mixture was incubated at room temperature for 15 minutes.

[2] = patients administered allopurinol; cited from earlier work
[3] = rats; cited from earlier work

T1 sequence (P80457 whole entry): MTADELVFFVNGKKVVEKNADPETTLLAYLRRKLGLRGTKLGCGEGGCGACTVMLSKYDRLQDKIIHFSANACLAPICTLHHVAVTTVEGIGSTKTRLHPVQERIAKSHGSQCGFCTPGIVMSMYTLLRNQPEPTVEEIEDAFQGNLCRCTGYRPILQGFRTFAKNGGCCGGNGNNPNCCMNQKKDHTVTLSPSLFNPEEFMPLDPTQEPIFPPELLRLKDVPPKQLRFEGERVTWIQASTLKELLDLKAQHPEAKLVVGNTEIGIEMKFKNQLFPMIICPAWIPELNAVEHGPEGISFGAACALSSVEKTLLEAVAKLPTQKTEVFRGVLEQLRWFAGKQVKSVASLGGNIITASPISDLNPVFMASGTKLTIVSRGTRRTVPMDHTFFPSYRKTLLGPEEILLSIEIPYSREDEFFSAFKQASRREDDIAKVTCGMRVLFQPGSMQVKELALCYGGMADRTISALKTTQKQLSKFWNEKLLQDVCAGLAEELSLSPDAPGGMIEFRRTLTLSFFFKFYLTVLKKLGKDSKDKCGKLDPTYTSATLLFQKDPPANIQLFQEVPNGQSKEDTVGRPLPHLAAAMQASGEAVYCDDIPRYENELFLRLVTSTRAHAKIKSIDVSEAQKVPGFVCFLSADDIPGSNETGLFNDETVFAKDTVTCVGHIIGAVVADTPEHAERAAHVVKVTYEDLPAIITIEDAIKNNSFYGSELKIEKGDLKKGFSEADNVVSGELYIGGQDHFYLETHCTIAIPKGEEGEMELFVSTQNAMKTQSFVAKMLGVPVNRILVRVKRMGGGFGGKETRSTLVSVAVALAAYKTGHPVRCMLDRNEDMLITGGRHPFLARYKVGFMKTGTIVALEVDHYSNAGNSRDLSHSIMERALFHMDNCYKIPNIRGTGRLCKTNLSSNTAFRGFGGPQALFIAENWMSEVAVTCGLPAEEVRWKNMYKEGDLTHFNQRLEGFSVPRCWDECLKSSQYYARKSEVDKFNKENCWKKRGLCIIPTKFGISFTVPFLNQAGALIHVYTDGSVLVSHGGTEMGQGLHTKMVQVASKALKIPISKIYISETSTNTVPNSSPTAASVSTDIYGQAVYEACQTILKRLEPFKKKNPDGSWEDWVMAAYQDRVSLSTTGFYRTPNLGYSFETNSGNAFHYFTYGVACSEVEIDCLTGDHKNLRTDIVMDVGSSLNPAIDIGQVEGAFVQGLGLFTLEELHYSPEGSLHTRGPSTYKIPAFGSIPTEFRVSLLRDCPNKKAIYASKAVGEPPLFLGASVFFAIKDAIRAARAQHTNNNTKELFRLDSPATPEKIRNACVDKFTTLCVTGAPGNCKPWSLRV

Compound | melting point [°C] | IC50 [1] [µM] | other results
O=c1nc(NN=Cc2ccc(O)c(O)c2)c2[nH]cnc2[nH]1 [I-12] | > 300 | 0.349 | –
O=c1nc(NN=Cc2ccc([N+](=O)[O-])cc2)c2[nH]c(-c3ccccc3)nc2[nH]1 [I-38, 6-(4-nitrobenzylidenehydrazino)-8-phenyl-7H-purin-2(3H)-one] | > 330 | 4.48 | xanthine oxidase inhibition activity compared with allopurinol [1]: higher xanthine oxidase inhibition activity than allopurinol
CN(N=Cc1ccc(F)cc1)c1nc(=O)[nH]c2nc[nH]c12 [I-17] | – | 0.116 | –
COc1cc(-c2nc3c4[nH]cnc4[nH]c(=O)n3n2)cc(OC)c1OC [II-9] | > 283 | 2.01 | –
CN(N=Cc1ccc(O)c(O)c1)c1nc(=O)[nH]c2nc[nH]c12 [I-21] | > 300 | > 10 | –
O=c1nc(NN=Cc2ccc(Cl)cc2)c2[nH]cnc2[nH]1 [I-2] | – | 0.025 | –
Oc1ncnc2[nH]ncc12 [allopurinol] | – | – | patients suffering from side effects (severe skin disorders, hypersensitivity vasculitis) [2]: three to five
Cc1nnc2c3c(ncn3C)n(C)c(=O)n12 [III-2, 3,6,9-trimethyl-9H-1,2,4-triazolo[3,4-i]purin-5(6H)-one] | 270 | – | –
O=c1nc(NN=Cc2ccc(O)cc2)c2[nH]cnc2[nH]1 [I-7] | – | 0.045 | –
Cc1nc2[nH]c(=O)n3nc(-c4ccc([N+](=O)[O-])cc4)nc3c2[nH]1 [II-24] | > 330 | > 10 | –
COc1cc(C=NN(C)c2nc(=O)[nH]c3nc[nH]c23)cc(OC)c1OC [I-20] | > 300 | > 10 | –
O=c1[nH]c2nc[nH]c2c2ncnn12 [II-1] | 262 | > 10 | –
Cn1cnc2c1c1nncn1c(=O)n2C [III-1, 6,9-dimethyl-9H-1,2,4-triazolo[3,4-i]purin-5(6H)-one] | 264 | – | –
CN(N=Cc1ccc(O)c(O)c1O)c1nc(=O)[nH]c2nc[nH]c12 [I-22] | > 300 | > 10 | –
COc1cc(C=NNc2nc(=O)[nH]c3nc[nH]c23)cc(OC)c1OC [I-11] | – | 0.208 | –
O=c1nc(NN=Cc2ccc(F)cc2)c2[nH]cnc2[nH]1 [I-1] | – | 0.038 | –
O=c1[nH]c2nc(-c3ccccc3)[nH]c2c2nc(-c3ccc([N+](=O)[O-])cc3)nn12 [II-31] | > 330 | > 10 | –
Cc1nc2[nH]c(=O)nc(NN=Cc3ccc([N+](=O)[O-])cc3)c2[nH]1 [I-33, 8-methyl-6-(4-nitrobenzylidenehydrazino)-7H-purin-2(3H)-one] | > 330 | – | –
CCCCCCCC=NNc1nc(=O)[nH]c2nc[nH]c12 [I-8, 6-n-octylidenehydrazino-7H-purin-2(3H)-one] | 190 | 2.02 | –
O=c1[nH]c2nc(-c3ccccc3)[nH]c2c2ncnn12 [II-25] | > 330 | 9.91 | xanthine oxidase inhibition activity compared with allopurinol [1]: higher xanthine oxidase inhibition activity than allopurinol
O=c1nc(NN=Cc2ccc3c(c2)OCO3)c2[nH]cnc2[nH]1 [I-6] | – | 0.063 | –
Cc1ccc(-c2nc3c4[nH]cnc4[nH]c(=O)n3n2)cc1 [II-7] | > 300 | 2.4 | –
O=c1[nH]c2nc[nH]c2c2nc(-c3ccc(Cl)cc3)nn12 [II-4] | 285 | 0.066 | –
O=c1[nH]c2nc[nH]c2c2nc(-c3ccc(O)c(O)c3)nn12 [II-10] | > 285 | 1.48 | –
COc1cccc(C=NN(C)c2nc(=O)[nH]c3nc[nH]c23)c1 [I-15] | – | 0.1 | –

Compound | melting point [°C] | IC50 [1] [µM] | other results
COc1ccccc1C=NN(C)c1nc(=O)[nH]c2nc[nH]c12 [I-14] | – | 0.079 | –
COc1ccc(C=NNc2nc(=O)[nH]c3nc(-c4ccccc4)[nH]c23)cc1 [I-37] | 314 | 9.21 | xanthine oxidase inhibition activity compared with allopurinol [1]: higher xanthine oxidase inhibition activity than allopurinol
O=c1[nH]c2nc[nH]c2c2nc(-c3ccc([N+](=O)[O-])cc3)nn12 [II-8] | > 300 | 4.27 | –
Cc1nc2c3[nH]cnc3[nH]c(=O)n2n1 [II-2] | 277 | > 10 | –
O=c1nc(NN=Cc2ccccc2)c2[nH]cnc2[nH]1 [I-9] | 300 | 0.05 | –
COc1ccc(-c2nc3c4[nH]cnc4[nH]c(=O)n3n2)cc1 [II-5] | 288 | 0.13 | –
Cc1ccc(C=NNc2nc(=O)[nH]c3nc[nH]c23)cc1 [I-10] | > 300 | 0.02 | –
O=c1nc(NN=Cc2ccc(O)c(O)c2O)c2[nH]cnc2[nH]1 [I-13] | > 300 | 1.48 | –
CCCCCCCC=NN(C)c1nc(=O)[nH]c2nc[nH]c12 [I-19, 6-(1-methyl-2-n-octylidenehydrazino)-7H-purin-2(3H)-one] | 248 | > 10 | –
Cn1cnc2c1c1nc(-c3ccc(Cl)cc3)nn1c(=O)n2C [II-14] | > 330 | > 10 | –
O=c1nc(NN=Cc2ccc([N+](=O)[O-])cc2)c2[nH]c(-c3ccc(Cl)cc3)nc2[nH]1 [I-43, 8-(4-chlorophenyl)-6-(4-nitrobenzylidenehydrazino)-7H-purin-2(3H)-one] | 229 | – | –
CN(C)c1ccc(C=NNc2nc(=O)[nH]c3nc[nH]c23)cc1 [I-3] | – | 0.075 | –
O=c1nc(NN=Cc2ccc([N+](=O)[O-])cc2)c2[nH]cnc2[nH]1 [I-4] | – | 0.045 | –
O=c1[nH]c2nc[nH]c2c2nc(-c3ccccc3)nn12 [II-3] | > 300 | 2.57 | –
COc1ccc(C=NNc2nc(=O)[nH]c3nc[nH]c23)cc1 [I-5] | – | 0.057 | –
Cc1nc(-c2ccc(OCC(C)C)c(C#N)c2)sc1C(=O)O [Febuxostat] | – | – | excreted through non-renal excretion pathways [3]: about 50%
O=c1[nH]c2nc(-c3ccc(Cl)cc3)[nH]c2c2ncnn12 [II-32] | > 330 | 1.09 | xanthine oxidase inhibition activity compared with allopurinol [1]: higher xanthine oxidase inhibition activity than allopurinol
Cn1cnc2c1c1nc(-c3ccc([N+](=O)[O-])cc3)nn1c(=O)n2C [II-17] | > 330 | > 10 | –
O=c1nc(NN=Cc2ccccc2)c2[nH]c(-c3ccccc3)nc2[nH]1 [I-34] | 318 | > 10 | –
CN(N=Cc1ccc(O)cc1)c1nc(=O)[nH]c2nc[nH]c12 [I-18] | – | 0.093 | –
COc1ccc(C=NN(C)c2nc(=O)[nH]c3nc[nH]c23)cc1 [I-16] | – | 0.076 | –
Cc1ccc(C=NNc2nc(=O)[nH]c3nc(-c4ccccc4)[nH]c23)cc1 [I-36] | 321 | > 10 | –
O=c1nc(NN=Cc2ccc(Cl)cc2)c2[nH]c(-c3ccccc3)nc2[nH]1 [I-35] | > 330 | > 10 | –
CCCCCCCc1nc2c3[nH]cnc3[nH]c(=O)n2n1 [II-6] | > 270 | 9.2 | –

Reference: patent US20210347778A1, “HYDRAZINOPURINE COMPOUND AND TRIAZOLOPURINE COMPOUND FOR INHIBITING XANTHINE OXIDASE” (TERA STONE CO., LTD, priority 2018, published 2021)
